The text below walks through data of patent US10179771B2 (GALAPAGOS NV, priority 2014, dated 2019).

The structures appear in SMILES notation. Some results are limits rather than exact numbers.

By IC50 is commonly meant the concentration that inhibits the measured activity by half.

The target of the first assay is T1, Recombinant human JAK2 catalytic domain (Homo sapiens, UniProt O60674).
T1 construct: Recombinant human JAK2 catalytic domain (amino acids 808-1132; catalog number PV4210); GST; purchased Invitrogen PV4210
T1 sequence (O60674 808-1132): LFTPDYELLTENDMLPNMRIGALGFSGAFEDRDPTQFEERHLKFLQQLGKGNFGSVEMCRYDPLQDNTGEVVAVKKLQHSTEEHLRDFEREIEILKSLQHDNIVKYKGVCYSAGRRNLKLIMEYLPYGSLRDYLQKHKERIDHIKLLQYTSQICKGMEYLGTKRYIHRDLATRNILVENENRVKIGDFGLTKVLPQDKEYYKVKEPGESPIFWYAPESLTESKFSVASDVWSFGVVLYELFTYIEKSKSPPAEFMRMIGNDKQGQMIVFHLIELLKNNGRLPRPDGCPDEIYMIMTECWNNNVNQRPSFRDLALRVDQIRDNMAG
The assay is described as follows: JAK2 inhibition assay (polyGT substrate / Ulight-JAK1 peptide assay). The settings on record: Comparative Compounds (Table VIII). In kind it is biochemical. As for the experimental part: Recombinant human JAK2 catalytic domain (amino acids 808-1132; catalog number PV4210) was purchased from Invitrogen. 0.025 mU of JAK2 is incubated with […] polyGT substrate (Sigma catalog number P0275) in kinase reaction buffer (5 mM MOPS pH 7.5, 9 mM MgAc, 0.3 mM EDTA, 0.06% Brij and 0.6 mM DTT, 1 μM non-radioactive ATP, 0.25 μCi ^33P-gamma-ATP (GE Healthcare, catalog number AH9968) final concentrations) with or without 5 μL containing test compound or vehicle (DMSO, 1% final concentration), in a total volume of 25 μL, in a polypropylene 96-well plate (Greiner, V-bottom). After 90 min at 30° C., reactions are stopped by adding of 25 μL/well of 150 mM phosphoric acid. All of the terminated kinase reaction is transferred to prewashed (75 mM phosphoric acid) 96 well filter plates (Perkin Elmer catalog number 6005177) using a cell harvester (Perkin Elmer). Plates are washed 6 times with 300 μL per well of a 75 mM phosphoric acid solution and the bottom of the plates is sealed. 40 μL/well of Microscint-20 is added, the top of the plates is sealed and readout is performed using the Topcount (Perkin Elmer). Kinase activity is calculated by subtracting counts per min (cpm) obtained in the presence of a positive control inhibitor (10 μM staurosporine) from cpm obtained in the presence of vehicle. The ability of a test compound to inhibit this activity is determined as:
[formula] • RFU test compound=RFU determined for sample with test compound present • RFU control=RFU determined for sample with positive control inhibitor • RFU vehicle=RFU determined in the presence of vehicle
Dose dilution series are prepared for the compounds enabling the testing of dose-response effects in the JAK2 assay and the calculation of the IC50 for each compound. Each compound is routinely tested at concentration of 20 μM followed by a 1/3 serial dilution, 8 points (20 μM-6.67 μM-2.22 μM-740 nM-247 nM-82 nM-27 nM-9 nM) in a final concentration of 1% DMSO. When potency of compound series increased, more dilutions are prepared and/or the top concentration is lowered (e.g. 5 μM, 1 μM).
Recombinant human JAK2 (catalytic domain, amino acids 866-1154; catalog number PV4210) was purchased from Invitrogen. 0.0125 mU of JAK2 was incubated with 25 nM Ulight-JAK1 (tyr1023) peptide (Perkin Elmer catalog number TRF0121) in kinase reaction buffer (25 mM HEPES pH7.0, 0.01% Triton X-100, 7.5 mM MgCl2, 2 mM DTT, 7.5 μM ATP) with or without 4 μL containing test compound or vehicle (DMSO, 1% final concentration), in a total volume of 20 μL, in a white 384 Opti plate (Perkin Elmer, catalog number 6007290). After 60 min at room temperature, reactions were stopped by adding 20 μL/well of detection mixture (1× detection buffer (Perkin Elmer, catalog number CR97-100C), 0.5 nM Europium-anti-phosphotyrosine (PT66) (Perkin Elmer, catalog number AD0068), 10 mM EDTA). Readout is performed using the Envision with excitation at 320 nm and measuring emission at 615 nm (Perkin Elmer). Kinase activity was calculated by subtracting relative fluorescence units (RFU) obtained in the presence of a positive control inhibitor (10 μM staurosporine) from RFU obtained in the presence of vehicle. The ability of a test compound to inhibit this activity was determined as: Percentage inhibition=((RFU determined for sample with test compound present−RFU determined for sample with positive control inhibitor) divided by (RFU determined in the presence of vehicle−RFU determined for sample with positive control inhibitor))*100.
Dose dilution series are prepared for compound enabling the testing of dose-response effects in the JAK2 assay and the calculation of the IC50 for the compound. Each compound is routinely tested at concentration of 20 μM followed by a 1/5 serial dilution, 10 points in a final concentration of 1% DMSO. When potency of compound series increases, more dilutions are prepared and/or the top concentration are lowered (e.g. 5 μM, 1 μM). […]
As to `CN(c1ccc2ncn(C)c2c1)c1ccc(C#N)cc1F` [C, 3-fluoro-4-[methyl-(3-methylbenzimidazol-5-yl)amino]benzonitrile, reference compound], the IC50 was above 500 nM.

The same assay, now with this note: Illustrative Compounds of the invention (Table VII).
Turning to `CNC(=O)Nc1cc(Oc2cnc(C#N)cc2C)cc2c1ncn2C`, the IC50 is 0.1 to 50 nM. Same read-out and setting: with `CCc1cc(C#N)cc(F)c1N(C)c1cc(NC(=O)[C@@H]2C[C@@H]2F)c2ncn(C)c2c1` (racemic) [Cpd 7, N-(6-((4-cyano-2-ethyl-6-fluorophenyl)(methyl)amino)-1-methyl-1H-benzo[d]imidazol-4-yl)-2-fluorocyclopropanecarboxamide (1S,2S)/(1R,2R) racemic mixture] the figure was 0.1 to 50 nM. For the compound `CCc1cc(C#N)ncc1N(C)c1cc(NC(=O)C2CC2)c2ncn(C)c2c1` [Cpd 1, N-(6-((6-cyano-4-ethylpyridin-3-yl)(methyl)amino)-1-methyl-1H-benzo[d]imidazol-4-yl)cyclopropanecarboxamide], the IC50 was in the range of 0.1 to 50 nM. The same measure, in the same setting: the result for `CCc1cc(C#N)cc(F)c1Nc1cc(NC(=O)C2CC2)c2ncn(C)c2c1` [Cpd 2, N-(6-(4-cyano-2-ethyl-6-fluorophenylamino)-1-methyl-1H-benzo[d]imidazol-4-yl)cyclopropanecarboxamide] reads 0.1 to 50 nM; that for `CCc1cc(C#N)cc(F)c1N(C)c1cc(NC(=O)C2CC2)c2ncn(C)c2c1` [Cpd 3, N-(6-((4-cyano-2-ethyl-6-fluorophenyl)(methyl)amino)-1-methyl-1H-benzo[d]imidazol-4-yl)cyclopropanecarboxamide], 0.1 to 50 nM; that for `CCc1cc(C#N)ncc1N(C)c1cc(NC(=O)OC)c2ncn(C)c2c1` [Cpd 4, methyl 6-((6-cyano-4-ethylpyridin-3-yl)(methyl)amino)-1-methyl-1H-benzo[d]imidazol-4-ylcarbamate], 0.1 to 50 nM.

As for `CCc1cc(C#N)cc(F)c1N(C)c1cc(NC(=O)OC)c2ncn(C)c2c1` [Cpd 5, methyl 6-((4-cyano-2-ethyl-6-fluorophenyl)(methyl)amino)-1-methyl-1H-benzo[d]imidazol-4-ylcarbamate], the IC50 was in the range of 0.1 to 50 nM. Turning to `CCc1cc(C#N)ncc1Oc1cc(NC(=O)[C@H]2C[C@H]2F)c2ncn(C)c2c1` [Cpd 6, (1R,2R)-N-[6-[(6-cyano-4-ethyl-3-pyridyl)oxy]-1-methyl-benzimidazol-4-yl]-2-fluoro-cyclopropanecarboxamide], the IC50 lay within 0.1 to 50 nM. Same read-out and setting: the result for `CCc1cc(C#N)ncc1N(C)c1cc(NC(=O)[C@H]2C[C@H]2F)c2ncn(C)c2c1` [Cpd 8, (1R,2R)-N-(6-((6-cyano-4-ethylpyridin-3-yl)(methyl)amino)-1-methyl-1H-benzo[d]imidazol-4-yl)-2-fluorocyclopropanecarboxamide] reads 0.1 to 50 nM; that for `Cc1cc(C#N)ncc1N(C)c1cc(NC(=O)[C@H]2C[C@H]2F)c2ncn(C)c2c1` [Cpd 9, (1R,2R)-N-(6-((6-cyano-4-methylpyridin-3-yl)(methyl)amino)-1-methyl-1H-benzo[d]imidazol-4-yl)-2-fluorocyclopropanecarboxamide], 0.1 to 50 nM; that for `CCc1cc(C#N)ccc1Oc1cc(NC(=O)[C@H]2C[C@H]2F)c2ncn(C)c2c1` [Cpd 10, (1R,2R)-N-[6-(4-cyano-2-ethyl-phenoxy)-1-methyl-benzimidazol-4-yl]-2-fluoro-cyclopropanecarboxamide], 0.1 to 50 nM. The same measure, in the same setting: the result for `CN(c1cc(NC(=O)[C@H]2C[C@H]2F)c2ncn(C)c2c1)c1c(F)cc(C#N)cc1Cl` [Cpd 11, (1R,2R)-N-[6-(2-chloro-4-cyano-6-fluoro-N-methyl-anilino)-1-methyl-benzimidazol-4-yl]-2-fluoro-cyclopropanecarboxamide] reads 0.1 to 50 nM; that for `Cc1cc(F)ncc1N(C)c1cc(NC(=O)[C@H]2C[C@H]2F)c2ncn(C)c2c1` [Cpd 12, (1R,2R)-2-fluoro-N-[6-[(6-fluoro-4-methyl-3-pyridyl)-methyl-amino]-1-methyl-benzimidazol-4-yl]cyclopropanecarboxamide], 50 to 100 nM; that for `CN(c1cc(NC(=O)[C@H]2C[C@H]2F)c2ncn(C)c2c1)c1ccc(F)nc1F` [Cpd 13, (1R,2R)-N-[6-[(2,6-difluoro-3-pyridyl)-methyl-amino]-1-methyl-benzimidazol-4-yl]-2-fluoro-cyclopropanecarboxamide], 100 to 500 nM. Same read-out and setting: with `CN(c1cc(NC(=O)[C@H]2C[C@H]2F)c2ncn(C)c2c1)c1ccc(C#N)nc1F` [Cpd 14, (1R,2R)-N-[6-[(6-cyano-2-fluoro-3-pyridyl)-methyl-amino]-1-methyl-benzimidazol-4-yl]-2-fluoro-cyclopropanecarboxamide] the figure was 50 to 100 nM; with `CN(c1cc(NC(=O)[C@H]2C[C@H]2F)c2ncn(C)c2c1)c1ccc(C#N)cc1F` [Cpd 15, (1R,2R)-N-[6-(4-cyano-2-fluoro-N-methyl-anilino)-1-methyl-benzimidazol-4-yl]-2-fluoro-cyclopropanecarboxamide], 100 to 500 nM. For `Cc1cc(S(C)(=O)=O)cc(F)c1N(C)c1cc(NC(=O)[C@H]2C[C@H]2F)c2ncn(C)c2c1` [Cpd 16, (1R,2R)-2-fluoro-N-[6-(2-fluoro-N,6-dimethyl-4-methylsulfonyl-anilino)-1-methyl-benzimidazol-4-yl]cyclopropanecarboxamide], the IC50 is 0.1 to 50 nM. `CN(c1cc(NC(=O)[C@H]2C[C@H]2F)c2ncn(C)c2c1)c1ccc(S(C)(=O)=O)cc1F` [Cpd 17, (1R,2R)-2-fluoro-N-[6-(2-fluoro-N-methyl-4-methylsulfonyl-anilino)-1-methyl-benzimidazol-4-yl]cyclopropanecarboxamide]: the IC50 was above 500 nM. `CCc1cc(S(C)(=O)=O)ncc1N(C)c1cc(NC(=O)C2CC2)c2ncn(C)c2c1` [Cpd 18, N-[6-[(4-ethyl-6-methylsulfonyl-3-pyridyl)-methyl-amino]-1-methyl-benzimidazol-4-yl]cyclopropanecarboxamide]: the IC50 fell in the range of 0.1 to 50 nM. The same measure, in the same setting: the result for `Cc1cc(S(C)(=O)=O)cc(F)c1N(C)c1cc(NC(=O)C2CC2)c2ncn(C)c2c1` [Cpd 19, N-[6-(2-fluoro-N,6-dimethyl-4-methylsulfonyl-anilino)-1-methyl-benzimidazol-4-yl]cyclopropanecarboxamide] reads 0.1 to 50 nM; that for `Cc1cc(C#N)ncc1Oc1cc(NC(=O)[C@H]2C[C@H]2F)c2ncn(C)c2c1` [Cpd 20, (1R,2R)-N-[6-[(6-cyano-4-methyl-3-pyridyl)oxy]-1-methyl-benzimidazol-4-yl]-2-fluoro-cyclopropanecarboxamide], 50 to 100 nM; that for `Cc1cc(C#N)nc(F)c1N(C)c1cc(NC(=O)[C@H]2C[C@H]2F)c2ncn(C)c2c1` [Cpd 21, (1R,2R)-N-[6-[(6-cyano-2-fluoro-4-methyl-3-pyridyl)-methyl-amino]-1-methyl-benzimidazol-4-yl]-2-fluoro-cyclopropanecarboxamide], 0.1 to 50 nM. On the same count and under the same terms, with `Cc1cnc(C#N)c(F)c1N(C)c1cc(NC(=O)[C@H]2C[C@H]2F)c2ncn(C)c2c1` [Cpd 22, (1R,2R)-N-[6-[(2-cyano-3-fluoro-5-methyl-4-pyridyl)-methyl-amino]-1-methyl-benzimidazol-4-yl]-2-fluoro-cyclopropanecarboxamide] the figure was 0.1 to 50 nM; with `Cc1cc(C#N)ncc1Oc1cc(NC(=O)C2CC2)c2ncn(C)c2c1` [Cpd 23, N-[6-[(6-cyano-4-methyl-3-pyridyl)oxy]-1-methyl-benzimidazol-4-yl]cyclopropanecarboxamide], 50 to 100 nM.
